Here are results for 4 compounds from patent US20090203145A1, “METHODS FOR ANALYSIS OF VITAMINS” (priority 2008, published 2009).

The subject of this assay is specific bacteria. In words: Microbiological method for B6 (Official Method 961.15, Modified): signal response of similar molecules. The format is cell-based. The note with it: microbiological B6 assay; for Signal Response in Microbiological Method: Response, %: B6 (pyridoxine) given as 100; for response in microbiological method compared with B6: statement in words. An excerpt: The often low concentrations of vitamins in foods can make measuring the level of vitamins in various foods difficult. For example, the low concentration of B vitamins in infant formula makes it difficult to be measured by traditional measurement techniques such as HPLC. Currently, microbiological methods for measuring B vitamins are widely used at laboratories. This method is based on the growth of specific bacteria in the presence of a specific B vitamin and can only be measured one analyte per assay. The analysis process may take more than 30 hours. Poor reproducibility is another disadvantage. It is not unusual for a bacterial response to vary with different compounds and show low specificity. Monitoring different chemical forms. Current microbiological method have less specificity, such as those described in Official Method 961.15 (Modified), Official Methods of Analysis of AOAC International, 17th ed., AOAC International, Gaithersburg Md. (2000). In the case of B6, for example, other similar molecules may have a similar response. […] However, these compounds can be distinguished by LC/MS/MS without any problem in real samples such as milk.

Turning to `Cc1ncc(CO)c(C(=O)O)c1O` [Pyridoxic acid, 4-pyridoxic acid], the “Signal Response in Microbiological Method: Response, %” value came out at 0%.
As for `Cc1ncc(CO)c(CO)c1O` [B6, pyridoxine, pyridoxine], the “Signal Response in Microbiological Method: Response, %” value is 100%.
For the compound `Cc1ncc(CO)c(C=O)c1O` [Pyridoxal, pyridoxal], the “Signal Response in Microbiological Method: Response, %” value turned out to be 112% and the “response in microbiological method compared with B6” value is “response as strong as B6”.
For `Cc1ncc(CO)c(CN)c1O` [Pyridoxamine, pyridoxamine], in that order: 84% and “response as strong as B6”.
